Data taken from US10960078B2 (priority 2013, dated 2021).

Assays:
MCF-7 tumor [1] = type: in vivo, Balb/c female nude mice; details: for tumor inhibitory rate (TIR): from tumor weight versus PBS group, 24 days
Experimental: Tumor volume and body weight of tumor-bearing mice were monitored every 3 days within 24 days. […] The tumor inhibitory rate (TIR) was calculated from tumor weight.
Study protocols involving animals were approved by the Animal Ethics Committee of Shanghai Jiao Tong University School of Medicine. SD rats (˜200 g) and 72 Balb/c female nude mice (4 weeks of age) were supplied by Chinese Academy of Sciences (Shanghai). The female nude mice were injected subcutaneously in the right flank region with 200 μL of cell suspension containing 4×10^6 MCF-7 cells. The tumors were allowed to grow to ˜200 mm^3 before experimentation.
Each mouse of different group was earmarked and followed individually throughout the whole experiments. The length and width of the tumor and the body weight of mice were measured before every injection by the end of experiment. Tumor volume (V) was calculated using the formula: V (mm^3)=½×length (mm)×width (mm)^2. After 24 days postinjection, mice were sacrificed, and tumors were separated, weighted and photographed. In addition, the tumors were cut into small pieces, fixed in 10% formalin and embedded in paraffin. Then the tissues embedded in paraffin were sectioned for histopathological analysis with H&E staining.

caspase-3 = experiment: Western blot analysis of caspase-3 expression; type: cell-based, human; details: MCF-7 cells, 30 μM, 24 h
Experimental: The untreated MCF-7 cells were used as a negative control.
MCF-7 cells were seeded in 6-well plates at a density of 5.0×10^5 cells per well in 2 mL of complete DMEM and allowed to attach for 24 h. […] MCF-7 cells untreated were used as a negative control. After treatment for 24 h, the MCF-7 cells were harvested. The cellular proteins were extracted in Laemmli buffer and the protein content in the extracts was quantified using a bicinchoninic acid (BCA) protein assay kit (Pierce, USA). Equal amounts of proteins (30 μg lane^−1) were separated on sodium dodecyl sulfate-polyacrylamide gels (SDS-PAGE) and electrotransferred to 0.22 μm polyvinylidene fluoride (PVDF) membranes. The membranes were then blocked with 5% non-fat dry milk in TBST (Tris buffered saline supplemented with 0.05% Tween-20) and probed with antibodies against β-actin (1:1,000 dilution), caspase-3 (1:1,000 dilution) followed by HRP-conjugated (HRP: horseradish peroxidase) anti-rabbit immunoglobulin-G (IgG, 1:5,000 dilution). β-Actin was used as the loading control. Protein bands were detected using Chemiluminescent HRP Substrate (Themo Scientific, USA) according to the manufacture's protocol and analyzed using the ChemiDoc™ MP Imaging System (Bio-Rad, USA).

MCF-7 cells [2] = type: cell-based, human; details: 30 μM, 24 h
Experimental: The untreated cells were used as control.
MCF-7 cells were seeded in 6-well plates at 5.0×10^5 cells per well in 2 mL of complete DMEM and cultured for 24 h. […] MCF-7 cells without the treatment were used as a control. […] For cell cycle determination, treated cells were collected, washed for twice with ice-cold PBS, fixed with 70% ethanol at 4° C. overnight and treated with Rnase A for 45 min at 37° C., followed by PI staining for 30 min in the dark.

[3] = Pharmacokinetic study (blood retention) after i.v. injection; details: rats, 8 mg kg^−1, 12 h
Experimental: The blood samples (0.5 mL) were taken from the eye socket at the 5 min, 15 min, 30 min, 1 h, 2 h, 4 h, 6 h, 8 h, and 12 h time points after injection. The plasma was obtained by centrifugation at 3,000 rpm for 10 min and stored at −20° C. A 200 μL of plasma was treated two times with 250 μL of acetonitrile and methanol mixture (1:1 v/v). The solvent solutions separated by centrifugation were pooled.

[4] = In vivo biodistribution in MCF-7 tumor-bearing mice; design: species or system Balb/c female nude mice; details: MCF-7 tumor-bearing nude mice, i.v.; Cb 3.5, Ir 6.7, Ir-Cb nanoparticles 10 mg kg^−1
Experimental: Furthermore, to examine the amount of Ir-Cb ADDC in the tumors and other organs, the MCF-7 tumor-bearing mice were sacrificed after intravenous injection with different time intervals. The tumor-bearing mice treated with free Cb and Ir were used as controls. […] After injection for 6 h, the content of Ir-Cb ADDC obviously decreases in kidney, spleen and lung, whereas the downward trend in tumor and liver is slower (FIG. 13b). […] After 6 h, the Ir concentration in spleen and lung decreases quickly.
The biodistribution of Cb, Ir and Ir-Cb nanoparticles was analyzed in Balb/c female nude mice bearing MCF-7 tumors. The MCF-7 tumor-bearing mice were intravenously injected via tail vein with Cb, Ir and Ir-Cb nanoparticles at a dose of Cb (3.5 mg kg^−1), Ir (6.7 mg kg^−1) and Ir-Cb nanoparticles (10 mg kg^−1). Mice were sacrificed by cervical vertebra dislocation at 30 min, 1 h and 6 h after drug administration (n=3 at each time point), and the heart, liver, spleen, lung, kidney and tumor were collected. Tissue samples were rinsed in saline, blotted using paper towel, weighed and stored at −80° C. before being homogenized. Cb, Ir and Ir-Cb were extracted from the homogenate using 2 mL of dichloromethane and methanol (4:1, v/v). The organic phases were collected and dried, and the samples were dissolved in acetonitrile for analysis.

MCF-7 cells [5] = experiment: Cell cycle assay (PI staining, flow cytometry); type: cell-based, human; details: 30 μM, 24 h
Experimental: MCF-7 cells were seeded in 6-well plates at 5.0×10^5 cells per well in 2 mL of complete DMEM and cultured for 24 h. […] MCF-7 cells without the treatment were used as a control. For quantitative measurement of apoptosis, treated cells were harvested and washed twice with ice-cold PBS, stained with Alexa Fluor® 488 annexin V and PI according to the manufacturer's instructions. For cell cycle determination, treated cells were collected, washed for twice with ice-cold PBS, fixed with 70% ethanol at 4° C. overnight and treated with Rnase A for 45 min at 37° C., followed by PI staining for 30 min in the dark. Both cell apoptosis and cycle were analyzed by flow cytometry (BD FACSCalibur, USA), and […] per sample were counted.

MCF-7 cells [6] = experiment: In vitro cytotoxicity by MTT assay, MCF-7 cells
Experimental: The cells without any treatment were used as the control.
The cells were seeded into 96-well plates at 1×10^4 cells per well in 200 μL of culture medium. […] The cells without the treatment were used as control. The cells were grown for another 72 h. Then, 20 μL of 5 mg mL^−1 MTT assay stock solution in PBS was added to each well. After the cells were incubated for 4 h, the medium containing unreacted MTT was carefully removed. Then, the obtained blue formazan crystals were dissolved in 200 μL well^−1 DMSO, and the absorbance was measured in a BioTek Synergy H4 hybrid reader at a wavelength of 490 nm. The blank was subtracted to the measured optical density (OD) values, and the cell viability was expressed as % of the values obtained for the untreated control cells.

[7] = Self-assembly of Ir-Cb ADDC in water: size and morphology by DLS and TEM; type: physicochemical
Experimental: The inherent amphiphilicity of the Ir-Cb ADDC provides an opportunity for itself to self-assemble into nanoparticles in water. To determine the size and morphology of the self-assembled nanoparticles, a dimethylsulfoxide (DMSO) solution of the Ir-Cb ADDC was added dropwise into water, followed by dialysis against water to remove DMSO. A stable and bluish solution with the final Ir-Cb conjugate concentration of 0.5 mg mL^−1 was obtained. FIG. 7a gives the dynamic light scattering (DLS) curve of Ir-Cb ADDC aqueous solution with a concentration of 0.5 mg mL^−1, indicating the formation of aggregates with a narrow unimodal distribution and an average hydrodynamic diameter of approximate 88.3 nm. The morphology of the aggregates was observed by transmission electron microscopy (TEM). […] This size is slightly smaller than that measured by DLS due to the shrinkage of nanoparticles in a drying state during TEM sample preparation. […]
^1H and ^13C nuclear magnetic resonance (^1H NMR and ^13C NMR) spectra were recorded using a Varian Mercury Plus 400 MHz spectrometer. Fourier transform infrared (FTIR) spectra were recorded on a Paragon 1,000 instrument by KBr sample holder method. […] All samples were measured at a scattering angle of 90°. […] Ultraviolet-visible (UV-Vis) absorption of the sample solutions was measured at room temperature by using a Thermo Electron-EV300 UV-Vis spectrophotometer. […]

[8] = In vitro drug release by dialysis in buffered solutions; details: pH 5.0, 37° C.
MCF-7 tumor [9] = experiment: Immunohistochemical analysis of tumor tissues (H&E, PCNA); type: in vivo, Balb/c female nude mice; details: MCF-7 tumors after treatment
Experimental: 3 days after the last injection, mice were sacrificed and tumor tissues were excised. The tissues were fixed in 10% formalin and embedded in paraffin. The paraffin-embedded 5 μm tumor sections were analyzed by immunohistochemical analysis for PCNA expression. To analyze the PCNA, endogenous peroxidase activity was inhibited by 3% hydrogen peroxide aqueous solution for 10 min, and the sections were heated to boiling in 0.01 M sodium citrate buffer (pH 6.0) for 10 min in the microwave oven for antigen retrieval and repeated boiling process for once. Subsequently, the sections were allowed to cool in the same buffer, rinsed twice with PBS for 5 min and then incubated with PCNA antibody (Boster, China, 1:200) for 30 min at room temperature and then at 4° C. overnight. After washing, sections were incubated with biotinylated secondary antibodies for 20 min at 37° C. Finally, a streptavidin-biotin complex was applied and the immunoreactivity was visualized with diaminobenzidine as a chromogen. The sections were imaged by using Olympus Fluorescence Microscope (Olympus BX61). […]
Each mouse of different group was earmarked and followed individually throughout the whole experiments. The length and width of the tumor and the body weight of mice were measured before every injection by the end of experiment. Tumor volume (V) was calculated using the formula: V (mm^3)=½×length (mm)×width (mm)^2. […]

MCF-7/ADR cells = experiment: Accumulation and efflux assay in MCF-7 and MCF-7/ADR cells (flow cytometry); type: cell-based, human; details: 30 μM, 1-4 h incubation
Experimental: The fluorescent intensity was calculated by CellQuest software, and blanked by untreated cells.

[10] = Critical aggregation concentration (CAC) measurement with pyrene fluorescent probe; type: physicochemical; details: in water, pyrene I3/I1
Experimental: To investigate the self-assembly behavior of Ir-Cb ADDC in water, the critical aggregation concentration (CAC) was measured by using pyrene as a fluorescent probe. I1 and I3 are the emission intensities of the first and third bands in the fluorescence spectrum of pyrene respectively, which are labeled as 1 and 3 in the inset of FIG. 7c. The emission intensity ratio of I3/I1 is very sensitive to the polarity of the medium surrounding pyrene molecules. (Kwon, et al. 1993 Langmuir 9, 945-949.) The higher polarity of the medium, the lower the intensity ratio is. The relationship of the I3/I1 ratio with the Ir-Cb ADDC concentration is present in FIG. 7c. At low Ir-Cb ADDC concentration, the I3/I1 value remains nearly unchanged, indicating the characteristics of pyrene in water environment. With increasing Ir-Cb ADDC concentration, the ratio of I3/I1 starts to increase dramatically and reaches the characteristic level of pyrene in hydrophobic environment at a certain Ir-Cb ADDC concentration. According to the inflexion of the curve, the CAC value of the Ir-Cb ADDC is about 7 μg mL^−1.
To determine the CAC value of the Ir-Cb ADDC, pyrene was used as the fluorescence probe. […] The fluorescence emission spectra of all samples were recorded on a LS-50B luminescence spectrometer (Perkin Elmer Co.) at 335 nm excitation wavelength and 8 nm slit width. The I3/I1 values of all solution were recorded.

Compound	tumor volume compared with the PBS group (MCF-7 tumor [1]; after 24 days treatment, i.v. once every 3 days) [%]	tumor inhibitory rate (TIR) (MCF-7 tumor [1]) [%]	caspase-3 protein expression versus untreated control (caspase-3)	ratio of apoptosis cells (MCF-7 cells [2]) [%]	plasma concentration after 12 h relative to Ir-Cb ADDC [3]	tissue distribution [4]	percentage of G0/G1 phase (MCF-7 cells [5]) [%]	percentage of G2/M (MCF-7 cells [5]) [%]	percentage of S (MCF-7 cells [5]) [%]	IC50 (MCF-7 cells [6]; Homo sapiens, MCF7, 72 h) [µM]	cytotoxicity compared with free Cb (MCF-7 cells [6]; MCF-7 cells)	average hydrodynamic diameter (Dh) by DLS ([7]; aqueous solution 0.5 mg mL^−1) [nm]	average size of spherical nanoparticles by TEM ([7]; dried state) [nm]	Ir release / hydrolysis at pH 5.0 [8]	H&E histology of tumor tissue (MCF-7 tumor [9])	accumulation in MCF-7/ADR cells compared with that in MCF-7 cells (MCF-7/ADR cells)	critical aggregation concentration (CAC) [10]	anticancer efficiency compared with free Ir and Ir/Cb mixture (MCF-7 cells [6]; MCF-7 cells, concentration higher than the CAC value)	antitumor activity compared with free Ir and Ir/Cb mixture (MCF-7 cells [6]; MCF-7 cells, drug concentration lower than the CAC value)
O=C(O)CCCc1ccc(N(CCCl)CCCl)cc1 [Cb, chlorambucil]	91.60±2.09	9.3±2.10	up-regulated slightly	18.02	one twenty-fifth	largely accumulates in liver, followed by spleen, lung, heart and kidney													
CCc1c2c(nc3ccc(OC(=O)N4CCC(N5CCCCC5)CC4)cc13)-c1cc3c(c(=O)n1C2)COC(=O)[C@]3(O)CC [Ir, irinotecan]		42.3±6.63	up-regulated slightly			mainly accumulates in liver, followed by spleen, lung, kidney and heart up to 2 h	34.25	27.81	37.93	~5	much higher than that of free Cb								
CCc1c2c(nc3ccc(OC(=O)N4CCC(N5CCCCC5)CC4)cc13)-c1cc3c(c(=O)n1C2)COC(=O)[C@@]3(CC)OC(=O)CCCc1ccc(N(CCCl)CCCl)cc1 [Ir-Cb ADDC]						accumulate in liver, spleen, kidney, lung and tumor at first 2 h						~88.3	~75.7	hydrolysis of Ir-Cb ADDC is accelerated	large necrotic area is observed	about ½	about 7 μg mL^−1	much better anticancer efficiency than free Ir and Ir/Cb mixture	worse than that of free Ir and Ir/Cb mixture
